In assay [1] the test system is MV4:11 human cancer cell lines. In words: Cellular viability / anti-proliferative assay, CellTiter-Glo, 5 day protocol. Particulars: Homo sapiens, MV4-11, 120 h, read-out: GI50 on cellular proliferation of MV4:11 human cancer cell lines. In kind it is cell-based. The essentials: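 MV-4-11 cells in IMDM with 10% FBS, 200 cells/well, exposed 5 days to 22 two-fold dilutions from 30 μM, final DMSO 0.3%. Viability read by CellTiter-Glo luminescence; GI50 from sigmoidal dose-response fit, mean of at least two replicates.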
(In general: Cellular ATP, detected with luciferase, serves as a proxy for viable cell number.)

The target of assay [2] is WDR5 (Homo sapiens, UniProt P61964). In words: TR-FRET competition binding assay, displacement of 10mer-Thr-FAM MLL peptide probe from His-tagged WDR5. To be noted: WDR5-His tag (residues 24-334) 2 nM; 10mer-Thr-FAM 150 nM; 60 min, room temperature; read-out: Ki for Inhibition of WDR5 by TR-FRET assay. In general terms: In TR-FRET formats the signal depends on donor and acceptor labels being close together.

[3] abbreviates: MV4:11 cells, 5 day incubation, CellTiter-Glo, mean of at least two replicates.

We go through 22 compounds from patent US12692249B2, “WDR5 inhibitors and modulators” (Vanderbilt University, priority 2019, dated 2026).

SMILES strings stand for the structures. Like-named read-outs stand apart in the source and are kept apart here.

Consider `Cc1cc(OCCN(C)C)c2cncc(N3CCc4c(cc(Cn5ccnc5)cc4-c4cn(C)nc4C(F)(F)F)C3=O)c2c1` [Example 106, 7-((1H-Imidazol-1-yl)methyl)-8′-(2-(dimethylamino)ethoxy)-6′-methyl-5-(1-methyl-3-(trifluoromethyl)-1H-pyrazol-4-yl)-3,4-dihydro-1H-[2,4′-biisoquinolin]-1-one], for which, in assay [1] (setting [3]), the GI50 is less than 20 nM. For the same compound, in assay [2], the Ki (commonly a measure of affinity in units of concentration, obtained from inhibition or displacement) came to 0.045 nM.
Taken in the same sequence, the figures for `CCc1ccc2c(N3CCc4c(cc(Cn5ccnc5)cc4-c4cn(C)nc4C(F)(F)F)C3=O)cccc2n1` [Example 107] were 452 nM and 0.021 nM.
The like results for `Cc1cc2c(N3CCc4c(cc(Cn5ccnc5)cc4-c4cn(C)nc4C(F)(F)F)C3=O)cccc2nc1C` [Example 108, 7-((1H-imidazol-1-yl)methy)-2-(2,3-dimethylquinolin-5-yl)-5-(1-methyl-3-(trifluoromethyl)-1H-pyrazol-4-yl)-3,4-dihydroisoquinolin-1(2H)-one] were, in that order, 40 nM and 0.042 nM.
Take `CCc1cc(Br)c2nc(C)cc(N3CCc4c(cc(Cn5ccnc5)cc4-c4cn(C)nc4C(F)(F)F)C3=O)c2c1` [Example 109, 7-((1H-imidazol-1-yl)methyl)-2-(8-bromo-6-ethyl-2-methylquinolin-4-yl)-5-(1-methyl-3-(trifluoromethyl)-1H-pyrazol-4-yl)-3,4-dihydroisoquinolin-1(2H)-one]: the GI50 in assay [1] (setting [3]) stood at 22 nM. Moreover, in assay [2], the Ki was less than 0.02 nM.
The like results for `CCc1cc(N2CCN(C)CC2)c2nc(C)cc(N3CCc4c(cc(Cn5ccnc5)cc4-c4cn(C)nc4C(F)(F)F)C3=O)c2c1` [Example 110, 7-((1H-imidazol-1-yl)methyl)-2-(6-ethyl-2-methyl-8-(4-methylpiperazin-1-yl)quinolin-4-yl)-5-(1-methyl-3-(trifluoromethyl)-1H-pyrazol-4-yl)-3,4-dihydroisoquinolin-1(2H)-one] were, in that order, less than 20 nM and 0.021 nM.
Taken in the same sequence, the figures for `Cc1cc(N2CCN(C)C(=O)C2)c2cncc(N3CCc4c(cc(Cn5ccnc5)cc4-c4cn(C)nc4C(F)(F)F)C3=O)c2c1` [Example 112, 7-((1H-Imidazol-1-yl)methyl)-6′-methyl-5-(1-methyl-3-(trifluoromethyl)-1H-pyrazol-4-yl)-8′-(4-methyl-3-oxopiperazin-1-yl)-3,4-dihydro-1H-[2,4′-biisoquinolin]-1-one] were 23 nM and 0.037 nM.
The like results for `CCc1cc(N2CC(=O)N(C)C2)c2nc(C)cc(N3CCc4c(cc(Cn5ccnc5)cc4-c4cn(C)nc4C(F)(F)F)C3=O)c2c1` [Example 113, 7-((1H-Imidazol-1-yl)methyl)-2-(6-ethyl-2-methyl-8-(3-methyl-4-oxoimidazolidin-1-yl)quinolin-4-yl)-5-(1-methyl-3-(trifluoromethyl)-1H-pyrazol-4-yl)-3,4-dihydroisoquinolin-1(2H)-one] were, in that order, less than 20 nM and 0.023 nM.
Take `COc1cc2c(N3CCc4c(cc(Cn5ccnc5)cc4-c4cn(C)nc4C(F)(F)F)C3=O)cccc2nc1C` [Example 114, 7-((1H-Imidazol-1-yl)methyl)-2-(3-methoxy-2-methylquinolin-5-yl)-5-(1-methyl-3-(trifluoromethyl)-1H-pyrazol-4-yl)-3,4-dihydroisoquinolin-1(2H)-one]: the GI50 in assay [1] (setting [3]) came to 43 nM. Besides, the inhibitory constant (Ki) in assay [2] came to 0.038 nM.
Taken in the same sequence, the figures for `CCc1cc(F)c2cncc(N3CCc4c(cc(Cn5ccnc5)cc4-c4cn(C)nc4C(F)(F)F)C3=O)c2c1` [Example 115, 7-((1H-Imidazol-1-yl)methyl)-6′-ethyl-8′-fluoro-5-(1-methyl-3-(trifluoromethyl)-1H-pyrazol-4-yl)-3,4-dihydro-1H-[2,4′-biisoquinolin]-1-one] were 40 nM and 0.031 nM.
Turning to `CCc1cc(OC)c2cncc(N3CCc4c(cc(Cn5ccnc5)cc4-c4cn(C)nc4C(F)(F)F)C3=O)c2c1` [Example 116, 7-((1H-Imidazol-1-yl)methy)-6′-ethyl-8-methoxy-5-(1-methyl-3-(trifluoromethyl)-1H-pyrazol-4-yl)-3,4-dihydro-1H-[2,4′-biisoquinolin]-one], the GI50 in assay [1] is less than 20 nM. Also, the Ki in assay [2] turned out to be 0.028 nM.
The like results for `CCc1cc2c(N3CCc4c(cc(Cn5ccnc5)cc4-c4cn(C)nc4C(F)(F)F)C3=O)cccc2nc1C` [Example 117, 7-((1H-Imidazol-1-yl)methyl)-2-(3-ethyl-2-methylquinolin-5-yl)-5-(1-methyl-3-(trifluoromethyl)-1H-pyrazol-4-yl)-3,4-dihydroisoquinolin-1(2H)-one] were, in that order, 64 nM and 0.036 nM.
As to `COc1ccc2nc(C)cc(N3CCc4c(cc(Cn5ccnc5[N+](=O)[O-])cc4-c4cn(C)nc4C(F)(F)F)C3=O)c2c1` [Example 118, 2-(6-Methoxy-2-methylquinolin-4-yl)-5-(1-methyl-3-(trifluoromethyl)-1H-pyrazol-4-yl)-7-((2-nitro-1H-imidazol-1-yl)methyl)-3,4-dihydroisoquinolin-1(2)-one], the GI50 in assay [1] (setting [3]) came to 3970 nM. Besides, the inhibition constant Ki in assay [2] was greater than 33000 nM.
Taken in the same sequence, the figures for `CCc1nc2cccc(N3CCc4c(cc(Cn5ccnc5)cc4-c4cn(C)nc4C(F)(F)F)C3=O)c2cc1C` [Example 119, 7-((1H-Imidazol-1-yl)methyl)-2-(2-ethyl-3-methylquinolin-5-yl)-5-(1-methyl-3-(trifluoromethyl)-1H-pyrazol-4-yl)-3,4-dihydroisoquinolin-1(2H)-one] were 457 nM and 0.057 nM.
On to `CCc1cc(OC)c2nc(C)cc(N3CCc4c(cc(Cn5ccnc5)cc4-c4cn(C)nc4C(F)(F)F)C3=O)c2c1` [Example 120, 7-((1H-Imidazol-1-yl)methyl)-2-(6-ethyl-8-methoxy-2-methylquinolin-4-yl)-5-(1-methyl-3-(trifluoromethyl)-1H-pyrazol-4-yl)-3,4-dihydroisoquinolin-1(2H)-one], for which the GI50 in assay [1] (setting [3]) is less than 20 nM. The Ki in assay [2] was 0.023 nM.
The like results for `COc1ccc2nc(C)cc(N3CCc4c(cc(Cn5ccnc5N)cc4-c4cn(C)nc4C(F)(F)F)C3=O)c2c1` [Example 121, 7-((2-Amino-1H-imidazol-1-yl)methyl)-2-(6-methoxy-2-methylquinolin-4-yl)-5-(1-methyl-3-(trifluoromethyl)-1-1H-pyrazol-4-yl)-3,4-dihydroisoquinolin-1(2H)-one] were, in that order, less than 20 nM and 0.023 nM.
The like results for `COc1cc(OC)c2cncc(N3CCc4c(cc(Cn5ccnc5)cc4-c4cn(C)nc4C(F)(F)F)C3=O)c2c1` [Example 122, 7-((1H-Imidazol-1-yl)methyl)-6′,8′-dimethoxy-5-(1-methyl-3-(trifluoromethyl)-1H-pyrazol-4-yl)-3,4-dihydro-1H-[2,4′-biisoquinolin]-1-one] were, in that order, 27 nM and 0.052 nM.
The like results for `COc1cc(N2CCN(C)CC2)c2cncc(N3CCc4c(cc(Cn5ccnc5)cc4-c4cn(C)nc4C(F)(F)F)C3=O)c2c1` [Example 123, 7-((1H-Imidazol-1-yl)methyl)-6′-methoxy-5-(1-methyl-3-(trifluoromethyl)-1H-pyrazol-4-yl)-8′-(4-methylpiperazin-1-yl)-3,4-dihydro-1H-[2,4′-biisoquinolin]-1-one] were, in that order, less than 20 nM and 0.04 nM.
On to `CCc1cc(N2CCN3CCOC[C@H]3C2)c2nc(C)cc(N3CCc4c(cc(Cn5ccnc5)cc4-c4cn(C)nc4C(F)(F)F)C3=O)c2c1` [Example 124, (R)-7-((1H-Imidazol-1-yl)methyl)-2-(6-ethyl-8-(hexahydropyrazino[2,1-c][1,4]oxazin-8(1H)-yl)-2-methylquinolin-4-yl)-5-(1-methyl-3-(trifluoromethyl)-1H-pyrazol-4-yl)-3,4-dihydroisoquinolin-1(2H)-one], for which the GI50 in assay [1] (setting [3]) is less than 20 nM. Besides, the Ki in assay [2] was 0.03 nM.
In the case of `COc1cc(CN2CCN(C(C)=O)CC2)c2nccc(N3CCc4c(cc(Cn5ccnc5)cc4-c4cn(C)nc4C(F)(F)F)C3=O)c2c1` [Example 127, 7-((1H-Imidazol-1-yl)methyl)-2-(8-((4-acetylpiperazin-1-yl)methyl)-6-methoxyquinolin-4-yl)-5-(1-methyl-3-(trifluoromethyl)-1H-pyrazol-4-yl)-3,4-dihydroisoquinolin-1(2H)-one], the GI50 in assay [1] (setting [3]) was less than 20 nM. Also, the Ki in assay [2] was determined as 0.021 nM.
As to `COc1cc(CN2CCCCC2)c2nccc(N3CCc4c(cc(Cn5ccnc5)cc4-c4cn(C)nc4C(F)(F)F)C3=O)c2c1` [Example 128], the GI50 in assay [1] is less than 20 nM. Also, the inhibitory constant (Ki) in assay [2] stood at 0.038 nM.
As for `CCc1cnc2cc(C)cc(N3CCc4c(cc(Cn5ccnc5)cc4-c4cn(C)nc4C(F)(F)F)C3=O)c2c1` [Example 129, 7-((1H-Imidazol-1-yl)methyl)-2-(3-ethyl-7-methylquinolin-5-yl)-5-(1-methyl-3-(trifluoromethyl)-1H-pyrazol-4-yl)-3,4-dihydroisoquinolin-1(2H)-one], in assay [1], the GI50 turned out to be 35 nM. For the same compound, the Ki in assay [2] stood at 0.029 nM.
The like results for `Cn1cc(-c2cc(Cn3ccnc3)cc3c2CCN(c2cccc4ncc(C5CC5)cc24)C3=O)c(C(F)(F)F)n1` [Example 130, 7-((1H-Imidazol-1-yl)methyl)-2-(3-cyclopropylquinolin-5-yl)-5-(1-methyl-3-(trifluoromethyl)-1H-pyrazol-4-yl)-3,4-dihydroisoquinolin-1(2H)-one] were, in that order, 218 nM and 0.051 nM.
